Results from ChEMBL document CHEMBL1126316, “Non-peptide fibrinogen receptor antagonists. 1. Discovery and design of exosite inhibitors” (J Med Chem, 1992).

Tests used:
[1] = target: Integrin alpha-5/beta-1 (Homo sapiens, UniProt P05556+P08648); experiment: Inhibition of HUVEC attachment to human fibronectin
[2] = target: T1, Integrin alpha-V/beta-3 (Homo sapiens, UniProt P05106+P06756); experiment: Inhibition of HUVEC attachment to human vitronectin
[3] = target: T1, Integrin alpha-V/beta-3; experiment: Inhibition of HUVEC attachment to human fibrinogen

T1 sequence (P05106 27-788 limits assumed): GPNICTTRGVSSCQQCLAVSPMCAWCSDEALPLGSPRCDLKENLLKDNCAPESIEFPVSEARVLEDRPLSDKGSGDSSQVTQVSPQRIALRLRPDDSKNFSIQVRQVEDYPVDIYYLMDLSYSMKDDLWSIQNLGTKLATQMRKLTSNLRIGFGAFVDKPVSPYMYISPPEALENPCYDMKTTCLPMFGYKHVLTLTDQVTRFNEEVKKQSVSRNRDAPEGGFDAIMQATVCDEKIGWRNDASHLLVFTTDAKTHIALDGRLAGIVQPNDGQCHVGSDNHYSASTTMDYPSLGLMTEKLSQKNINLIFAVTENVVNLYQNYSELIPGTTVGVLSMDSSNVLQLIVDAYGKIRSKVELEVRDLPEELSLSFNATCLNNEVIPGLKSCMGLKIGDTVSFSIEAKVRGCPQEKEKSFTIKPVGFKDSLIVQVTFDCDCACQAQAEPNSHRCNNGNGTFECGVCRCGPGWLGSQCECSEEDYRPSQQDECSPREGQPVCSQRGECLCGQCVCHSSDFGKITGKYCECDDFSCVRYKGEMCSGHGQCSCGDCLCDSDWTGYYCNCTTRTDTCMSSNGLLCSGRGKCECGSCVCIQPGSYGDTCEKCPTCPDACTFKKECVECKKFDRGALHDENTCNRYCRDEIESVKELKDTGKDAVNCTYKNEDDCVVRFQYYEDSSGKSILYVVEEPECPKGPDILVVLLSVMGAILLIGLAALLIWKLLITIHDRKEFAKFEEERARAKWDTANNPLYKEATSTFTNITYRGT
T1 sequence (P06756 31-889 limits assumed): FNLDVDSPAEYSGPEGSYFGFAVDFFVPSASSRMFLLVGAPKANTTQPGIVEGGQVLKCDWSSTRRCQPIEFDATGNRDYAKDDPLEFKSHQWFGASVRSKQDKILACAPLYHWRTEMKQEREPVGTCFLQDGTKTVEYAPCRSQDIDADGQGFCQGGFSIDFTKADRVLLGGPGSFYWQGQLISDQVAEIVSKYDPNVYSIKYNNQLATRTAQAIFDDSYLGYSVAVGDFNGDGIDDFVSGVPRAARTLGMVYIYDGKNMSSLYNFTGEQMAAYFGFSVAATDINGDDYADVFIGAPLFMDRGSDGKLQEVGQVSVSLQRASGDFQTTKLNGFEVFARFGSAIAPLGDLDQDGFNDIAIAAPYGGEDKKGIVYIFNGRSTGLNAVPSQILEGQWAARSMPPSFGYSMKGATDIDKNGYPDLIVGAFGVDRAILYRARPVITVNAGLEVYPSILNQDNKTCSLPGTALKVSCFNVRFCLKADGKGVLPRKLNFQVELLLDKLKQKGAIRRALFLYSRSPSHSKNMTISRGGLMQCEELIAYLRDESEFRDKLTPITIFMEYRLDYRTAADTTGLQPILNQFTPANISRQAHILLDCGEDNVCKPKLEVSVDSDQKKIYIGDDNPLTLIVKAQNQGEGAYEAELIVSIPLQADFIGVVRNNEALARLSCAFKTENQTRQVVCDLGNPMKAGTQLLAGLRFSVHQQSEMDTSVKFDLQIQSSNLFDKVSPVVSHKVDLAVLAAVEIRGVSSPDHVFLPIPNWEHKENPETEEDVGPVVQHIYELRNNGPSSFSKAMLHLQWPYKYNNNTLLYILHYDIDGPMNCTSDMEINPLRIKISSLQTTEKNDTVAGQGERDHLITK
T1 sequence (P06756 891-1048 limits assumed): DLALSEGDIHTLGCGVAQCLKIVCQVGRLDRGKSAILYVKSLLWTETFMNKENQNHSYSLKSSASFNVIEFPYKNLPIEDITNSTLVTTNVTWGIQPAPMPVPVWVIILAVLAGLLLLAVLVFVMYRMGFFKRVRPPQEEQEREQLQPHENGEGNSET
Integrin alpha-5/beta-1, sequence (P05556 21-798 limits assumed): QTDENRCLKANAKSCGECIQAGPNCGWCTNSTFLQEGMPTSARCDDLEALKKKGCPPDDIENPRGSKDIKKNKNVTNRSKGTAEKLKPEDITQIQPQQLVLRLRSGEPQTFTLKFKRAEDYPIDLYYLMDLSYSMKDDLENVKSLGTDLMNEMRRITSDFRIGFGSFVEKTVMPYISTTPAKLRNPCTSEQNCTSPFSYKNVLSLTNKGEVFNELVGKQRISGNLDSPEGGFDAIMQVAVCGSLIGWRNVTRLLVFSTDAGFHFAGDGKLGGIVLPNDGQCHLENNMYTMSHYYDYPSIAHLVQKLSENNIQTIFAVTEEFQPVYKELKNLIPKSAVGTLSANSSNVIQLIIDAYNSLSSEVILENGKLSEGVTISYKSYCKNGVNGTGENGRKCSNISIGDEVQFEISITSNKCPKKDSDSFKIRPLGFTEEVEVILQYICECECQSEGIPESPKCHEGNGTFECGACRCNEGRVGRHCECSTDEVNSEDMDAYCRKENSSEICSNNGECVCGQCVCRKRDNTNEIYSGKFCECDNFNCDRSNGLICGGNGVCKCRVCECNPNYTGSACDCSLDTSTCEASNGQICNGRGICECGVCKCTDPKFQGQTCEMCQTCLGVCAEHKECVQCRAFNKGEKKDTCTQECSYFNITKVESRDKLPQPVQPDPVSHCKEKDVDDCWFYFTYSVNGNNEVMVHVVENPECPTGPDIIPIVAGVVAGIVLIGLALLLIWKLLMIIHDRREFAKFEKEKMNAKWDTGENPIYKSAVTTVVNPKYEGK
Integrin alpha-5/beta-1, sequence (P08648 42-894 limits assumed): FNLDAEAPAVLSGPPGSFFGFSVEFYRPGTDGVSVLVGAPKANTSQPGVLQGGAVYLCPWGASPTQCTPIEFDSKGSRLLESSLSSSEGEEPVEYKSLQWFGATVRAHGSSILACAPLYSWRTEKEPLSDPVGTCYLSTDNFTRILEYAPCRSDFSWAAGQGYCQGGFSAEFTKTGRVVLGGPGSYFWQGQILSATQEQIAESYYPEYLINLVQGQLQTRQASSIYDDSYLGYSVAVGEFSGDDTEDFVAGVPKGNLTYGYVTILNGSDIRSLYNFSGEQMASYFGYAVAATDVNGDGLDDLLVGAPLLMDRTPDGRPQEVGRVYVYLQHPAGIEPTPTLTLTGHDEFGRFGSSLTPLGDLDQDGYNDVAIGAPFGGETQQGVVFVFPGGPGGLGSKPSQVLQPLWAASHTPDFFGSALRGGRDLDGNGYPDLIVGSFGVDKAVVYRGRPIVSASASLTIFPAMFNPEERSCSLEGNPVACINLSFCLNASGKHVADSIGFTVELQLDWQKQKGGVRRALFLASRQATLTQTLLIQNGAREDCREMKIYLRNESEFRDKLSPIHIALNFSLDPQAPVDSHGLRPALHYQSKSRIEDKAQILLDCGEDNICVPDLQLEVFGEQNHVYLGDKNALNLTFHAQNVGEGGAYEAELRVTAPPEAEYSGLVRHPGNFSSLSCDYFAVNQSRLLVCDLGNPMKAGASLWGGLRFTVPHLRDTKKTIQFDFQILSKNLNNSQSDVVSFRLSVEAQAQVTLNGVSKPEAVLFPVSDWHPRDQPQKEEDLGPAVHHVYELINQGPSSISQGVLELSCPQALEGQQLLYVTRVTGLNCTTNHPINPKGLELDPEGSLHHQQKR
Integrin alpha-5/beta-1, sequence (P08648 895-1049 limits assumed): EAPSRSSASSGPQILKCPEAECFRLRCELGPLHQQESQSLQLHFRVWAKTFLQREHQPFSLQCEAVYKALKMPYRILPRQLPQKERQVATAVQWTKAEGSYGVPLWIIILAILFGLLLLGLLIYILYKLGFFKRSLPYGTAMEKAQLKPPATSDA

- IC50 [1]: > 300 µM
- IC50 [2]: 100 µM
- IC50 [3]: 260 µM
Compound: CCCCS(=O)(=O)N[C@@H](Cc1ccc(OCCCCC2CCNCC2)cc1)C(=O)O [TIROFIBAN]
